{"source": "patent US7964531B2", "about": "“3-phenoxy-4-pyridazinol derivatives and herbicidal composition containing the same” (Mitsui Chemicals Agro, Inc., priority 2001, dated 2011)", "format_in_all_cases": "in vivo", "key": {"Cyperus serotinus [1]": {"test_system": "Cyperus serotinus", "assay": "Test Example 1: herbicidal effects, paddy-field pot test", "conditions": "wettable powder applied 3 days after transplanting, judged after 25 days", "in_short": "(§1)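 Scores are growth inhibition ratings from 0 (0–10%) to 5 (91–100%), judged 25 days after a water-diluted wettable powder was applied to flooded pots. Treatment followed transplanting of 2.2-leaf rice by 3 days; weeds were seeded at the soil surface or planted as germinated tubers.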"}, "Scirpus joncoides [2]": {"test_system": "Scirpus joncoides", "assay": "Test Example 1: herbicidal effects, paddy-field pot test", "conditions": "wettable powder applied 3 days after transplanting, judged after 25 days", "in_short": "as §1"}, "[3]": {"test_system": "annual broad-leaved weeds (Lindernia spp., Rotala indica)", "assay": "Test Example 1: herbicidal effects, paddy-field pot test", "conditions": "wettable powder applied 3 days after transplanting, judged after 25 days", "in_short": "as §1"}, "[4]": {"test_system": "barnyardgrass (Echinochloa oryzicola Vasing.)", "assay": "Test Example 1: herbicidal effects, paddy-field pot test", "conditions": "wettable powder applied 3 days after transplanting, judged after 25 days", "in_short": "as §1"}, "[5]": {"test_system": "transplanted paddy-field rice", "assay": "Test Example 1: crop injury against transplanted paddy-field rice", "conditions": "wettable powder applied 3 days after transplanting, judged after 25 days", "in_short": "as §1"}, "Cyperus serotinus [6]": {"test_system": "Cyperus serotinus", "assay": "Test Example 4: herbicidal effects of mixed wettable powder, paddy-field pot test", "conditions": "no second compound, after 25 days", "method": "(§2) Paddy filed soil was filled in 1/5000 are Wagner pot, seeds of barnyardgrass (Echinochloa oryzicola Vasing.), Scirpus joncoides and annual broad-leaved weeds (Lindernia spp. and Rotala indica) which are awaken from dormancy were mixed at the surface layer of 1 cm. Also, tubers of Cyperus serotinus, Sagittaria pygmaea and Eleocharis kuroguwai which are awaken from dormancy were planted, and further seedlings of paddy-field rice at 2.2-leaf stage were transplanted and they were grown under the flooded condition in a greenhouse. After 3 days from the transplanting, a predetermined chemical dosage of the wettable powder prepared in accordance with Preparation example 5 was diluted with water, and applied to the pot. After 25 days, herbicidal effects and crop injury against transplanted paddy-field rice were judged according to the following judgment standard, and the results were shown in Table 5. Incidentally, “-” in the table means a composition containing no effective ingredient.\n(§3) Judgment Standard • 0: Growth-inhibition rate; 0 to 15% • 1: Growth inhibition rate; 16 to 35% • 2: Growth inhibition rate; 36 to 55% • 3: Growth inhibition rate; 56 to 75% • 4: Growth inhibition rate; […] • 5: Growth inhibition rate; 96 to 100%."}, "Eleocharis kuroguwai": {"test_system": "Eleocharis kuroguwai", "assay": "Test Example 4: herbicidal effects of mixed wettable powder, paddy-field pot test", "conditions": "no second compound, after 25 days", "method": "as §2, §3"}, "Sagittaria pygmaea": {"test_system": "Sagittaria pygmaea", "assay": "Test Example 4: herbicidal effects of mixed wettable powder, paddy-field pot test", "conditions": "no second compound, after 25 days", "method": "as §2, §3"}, "Scirpus joncoides [7]": {"test_system": "Scirpus joncoides", "assay": "Test Example 4: herbicidal effects of mixed wettable powder, paddy-field pot test", "conditions": "no second compound, after 25 days", "method": "as §2, §3"}, "[8]": {"test_system": "annual broad-leaved weeds (Lindernia spp. and Rotala indica)", "assay": "Test Example 4: herbicidal effects of mixed wettable powder, paddy-field pot test", "conditions": "no second compound, after 25 days", "method": "as §2, §3"}, "[9]": {"test_system": "barnyardgrass (Echinochloa oryzicola Vasing.)", "assay": "Test Example 4: herbicidal effects of mixed wettable powder, paddy-field pot test", "conditions": "no second compound, after 25 days", "method": "as §2, §3"}, "[10]": {"test_system": "transplanted paddy-field rice", "assay": "Test Example 4: crop injury against transplanted paddy-field rice", "conditions": "no second compound, after 25 days", "method": "as §2, §3"}}, "data": [{"compound": "Oc1cc(Cl)nnc1Oc1ccccc1C1CC1", "note": "[Example 6]", "values": [{"measurement": "Herbicidal effects Cyperus serotinus", "setting": "Cyperus serotinus [1]; chemical dosage 10 g/a", "result": "5 (Growth inhibition rate; 91 to 100%)"}, {"measurement": "Herbicidal effects Cyperus serotinus", "setting": "Cyperus serotinus [1]; chemical dosage 20 g/a", "result": "5 (Growth inhibition rate; 91 to 100%)"}, {"measurement": "Herbicidal effects Scirpus joncoides", "setting": "Scirpus joncoides [2]; chemical dosage 10 g/a", "result": "5 (Growth inhibition rate; 91 to 100%)"}, {"measurement": "Herbicidal effects Scirpus joncoides", "setting": "Scirpus joncoides [2]; chemical dosage 20 g/a", "result": "5 (Growth inhibition rate; 91 to 100%)"}, {"measurement": "Herbicidal effects Broad leaf", "setting": "[3]; chemical dosage 10 g/a", "result": "5 (Growth inhibition rate; 91 to 100%)"}, {"measurement": "Herbicidal effects Broad leaf", "setting": "[3]; chemical dosage 20 g/a", "result": "5 (Growth inhibition rate; 91 to 100%)"}, {"measurement": "Herbicidal effects Barnyard grass", "setting": "[4]; chemical dosage 10 g/a", "result": "2 (Growth inhibition rate; 31 to 50%)"}, {"measurement": "Herbicidal effects Barnyard grass", "setting": "[4]; chemical dosage 20 g/a", "result": "3 (Growth inhibition rate; 51 to 70%)"}, {"measurement": "Crop injury against transplanted rice", "setting": "[5]; chemical dosage 10 g/a", "result": "0 (Growth inhibition rate; 0 to 10%)"}, {"measurement": "Crop injury against transplanted rice", "setting": "[5]; chemical dosage 20 g/a", "result": "0 (Growth inhibition rate; 0 to 10%)"}, {"measurement": "Herbicidal effects Cyperus serotinus", "setting": "Cyperus serotinus [6]; derivative 5 g/a", "result": "5 (Growth inhibition rate; 96 to 100%)"}, {"measurement": "Herbicidal effects Cyperus serotinus", "setting": "Cyperus serotinus [6]; derivative 10 g/a", "result": "5 (Growth inhibition rate; 96 to 100%)"}, {"measurement": "Herbicidal effects Eleocharis kuroguwai", "setting": "Eleocharis kuroguwai; derivative 5 g/a", "result": "2 (Growth inhibition rate; 36 to 55%)"}, {"measurement": "Herbicidal effects Eleocharis kuroguwai", "setting": "Eleocharis kuroguwai; derivative 10 g/a", "result": "3 (Growth inhibition rate; 56 to 75%)"}, {"measurement": "Herbicidal effects Sagittaria pygmaea", "setting": "Sagittaria pygmaea; derivative 5 g/a", "result": "5 (Growth inhibition rate; 96 to 100%)"}, {"measurement": "Herbicidal effects Sagittaria pygmaea", "setting": "Sagittaria pygmaea; derivative 10 g/a", "result": "5 (Growth inhibition rate; 96 to 100%)"}, {"measurement": "Herbicidal effects Scirpus joncoides", "setting": "Scirpus joncoides [7]; derivative 5 g/a", "result": "5 (Growth inhibition rate; 96 to 100%)"}, {"measurement": "Herbicidal effects Scirpus joncoides", "setting": "Scirpus joncoides [7]; derivative 10 g/a", "result": "5 (Growth inhibition rate; 96 to 100%)"}, {"measurement": "Herbicidal effects Broad leaf", "setting": "[8]; derivative 5 g/a", "result": "5 (Growth inhibition rate; 96 to 100%)"}, {"measurement": "Herbicidal effects Broad leaf", "setting": "[8]; derivative 10 g/a", "result": "5 (Growth inhibition rate; 96 to 100%)"}, {"measurement": "Herbicidal effects Barnyard grass", "setting": "[9]; derivative 5 g/a", "result": "1 (Growth inhibition rate; 16 to 35%)"}, {"measurement": "Herbicidal effects Barnyard grass", "setting": "[9]; derivative 10 g/a", "result": "2 (Growth inhibition rate; 36 to 55%)"}, {"measurement": "Crop injury against transplanted rice", "setting": "[10]; derivative 5 g/a", "result": "0 (Growth-inhibition rate; 0 to 15%)"}, {"measurement": "Crop injury against transplanted rice", "setting": "[10]; derivative 10 g/a", "result": "0 (Growth-inhibition rate; 0 to 15%)"}]}, {"compound": "Cc1cc(C)c(C2CC2)c(Oc2nnc(Cl)cc2O)c1", "note": "[Example 288]", "values": [{"measurement": "Herbicidal effects Cyperus serotinus", "setting": "Cyperus serotinus [1]; chemical dosage 10 g/a", "result": "5 (Growth inhibition rate; 91 to 100%)"}, {"measurement": "Herbicidal effects Cyperus serotinus", "setting": "Cyperus serotinus [1]; chemical dosage 20 g/a", "result": "5 (Growth inhibition rate; 91 to 100%)"}, {"measurement": "Herbicidal effects Scirpus joncoides", "setting": "Scirpus joncoides [2]; chemical dosage 10 g/a", "result": "5 (Growth inhibition rate; 91 to 100%)"}, {"measurement": "Herbicidal effects Scirpus joncoides", "setting": "Scirpus joncoides [2]; chemical dosage 20 g/a", "result": "5 (Growth inhibition rate; 91 to 100%)"}, {"measurement": "Herbicidal effects Broad leaf", "setting": "[3]; chemical dosage 10 g/a", "result": "5 (Growth inhibition rate; 91 to 100%)"}, {"measurement": "Herbicidal effects Broad leaf", "setting": "[3]; chemical dosage 20 g/a", "result": "5 (Growth inhibition rate; 91 to 100%)"}, {"measurement": "Herbicidal effects Barnyard grass", "setting": "[4]; chemical dosage 10 g/a", "result": "0 (Growth inhibition rate; 0 to 10%)"}, {"measurement": "Herbicidal effects Barnyard grass", "setting": "[4]; chemical dosage 20 g/a", "result": "1 (Growth inhibition rate; 11 to 30%)"}, {"measurement": "Crop injury against transplanted rice", "setting": "[5]; chemical dosage 10 g/a", "result": "0 (Growth inhibition rate; 0 to 10%)"}, {"measurement": "Crop injury against transplanted rice", "setting": "[5]; chemical dosage 20 g/a", "result": "0 (Growth inhibition rate; 0 to 10%)"}, {"measurement": "Herbicidal effects Cyperus serotinus", "setting": "Cyperus serotinus [6]; derivative 5 g/a", "result": "4 (Growth inhibition rate; 7.6 to 95%)"}, {"measurement": "Herbicidal effects Cyperus serotinus", "setting": "Cyperus serotinus [6]; derivative 10 g/a", "result": "5 (Growth inhibition rate; 96 to 100%)"}, {"measurement": "Herbicidal effects Eleocharis kuroguwai", "setting": "Eleocharis kuroguwai; derivative 5 g/a", "result": "2 (Growth inhibition rate; 36 to 55%)"}, {"measurement": "Herbicidal effects Eleocharis kuroguwai", "setting": "Eleocharis kuroguwai; derivative 10 g/a", "result": "3 (Growth inhibition rate; 56 to 75%)"}, {"measurement": "Herbicidal effects Sagittaria pygmaea", "setting": "Sagittaria pygmaea; derivative 5 g/a", "result": "5 (Growth inhibition rate; 96 to 100%)"}, {"measurement": "Herbicidal effects Sagittaria pygmaea", "setting": "Sagittaria pygmaea; derivative 10 g/a", "result": "5 (Growth inhibition rate; 96 to 100%)"}, {"measurement": "Herbicidal effects Scirpus joncoides", "setting": "Scirpus joncoides [7]; derivative 5 g/a", "result": "5 (Growth inhibition rate; 96 to 100%)"}, {"measurement": "Herbicidal effects Scirpus joncoides", "setting": "Scirpus joncoides [7]; derivative 10 g/a", "result": "5 (Growth inhibition rate; 96 to 100%)"}, {"measurement": "Herbicidal effects Broad leaf", "setting": "[8]; derivative 5 g/a", "result": "5 (Growth inhibition rate; 96 to 100%)"}, {"measurement": "Herbicidal effects Broad leaf", "setting": "[8]; derivative 10 g/a", "result": "5 (Growth inhibition rate; 96 to 100%)"}, {"measurement": "Herbicidal effects Barnyard grass", "setting": "[9]; derivative 5 g/a", "result": "0 (Growth-inhibition rate; 0 to 15%)"}, {"measurement": "Herbicidal effects Barnyard grass", "setting": "[9]; derivative 10 g/a", "result": "0 (Growth-inhibition rate; 0 to 15%)"}, {"measurement": "Crop injury against transplanted rice", "setting": "[10]; derivative 5 g/a", "result": "0 (Growth-inhibition rate; 0 to 15%)"}, {"measurement": "Crop injury against transplanted rice", "setting": "[10]; derivative 10 g/a", "result": "0 (Growth-inhibition rate; 0 to 15%)"}]}]}
